In the Kinase Knowledgebase extract (Sharma et al. 2016):

Molecular target: EGFR (human) (UniProt P00533)
Sequence (P00533 whole entry, looked up): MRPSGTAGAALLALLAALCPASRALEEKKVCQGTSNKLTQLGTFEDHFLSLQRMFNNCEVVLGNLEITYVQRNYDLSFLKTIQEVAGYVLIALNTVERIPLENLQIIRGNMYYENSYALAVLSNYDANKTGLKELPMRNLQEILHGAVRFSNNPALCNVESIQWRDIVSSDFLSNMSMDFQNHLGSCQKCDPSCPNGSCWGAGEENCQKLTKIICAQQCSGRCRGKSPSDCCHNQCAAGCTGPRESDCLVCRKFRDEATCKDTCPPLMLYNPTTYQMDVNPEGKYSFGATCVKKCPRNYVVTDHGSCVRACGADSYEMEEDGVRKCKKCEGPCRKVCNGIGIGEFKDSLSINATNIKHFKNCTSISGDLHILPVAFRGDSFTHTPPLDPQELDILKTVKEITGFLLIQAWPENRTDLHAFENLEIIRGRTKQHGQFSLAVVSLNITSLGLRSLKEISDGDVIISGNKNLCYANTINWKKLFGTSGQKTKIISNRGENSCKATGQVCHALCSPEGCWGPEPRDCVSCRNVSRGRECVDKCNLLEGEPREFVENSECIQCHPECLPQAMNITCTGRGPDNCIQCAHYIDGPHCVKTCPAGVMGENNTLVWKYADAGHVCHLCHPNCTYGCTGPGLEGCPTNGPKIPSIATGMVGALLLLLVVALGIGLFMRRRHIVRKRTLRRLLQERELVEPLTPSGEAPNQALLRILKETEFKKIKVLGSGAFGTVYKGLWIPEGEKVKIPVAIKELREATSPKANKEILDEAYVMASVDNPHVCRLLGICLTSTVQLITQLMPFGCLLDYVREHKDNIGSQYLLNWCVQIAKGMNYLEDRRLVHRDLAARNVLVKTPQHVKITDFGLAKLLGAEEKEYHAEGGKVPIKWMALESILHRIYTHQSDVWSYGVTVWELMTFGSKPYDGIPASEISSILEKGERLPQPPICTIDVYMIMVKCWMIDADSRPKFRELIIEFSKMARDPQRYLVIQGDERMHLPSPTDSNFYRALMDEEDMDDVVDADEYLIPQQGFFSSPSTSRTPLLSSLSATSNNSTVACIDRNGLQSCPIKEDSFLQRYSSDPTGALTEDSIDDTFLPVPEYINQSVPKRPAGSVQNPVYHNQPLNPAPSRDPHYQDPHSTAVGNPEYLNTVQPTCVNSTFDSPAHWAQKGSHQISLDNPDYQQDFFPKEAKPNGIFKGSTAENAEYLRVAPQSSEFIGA

SMILES | IC50 [nM]
CS(=O)(=O)Cc1ccc(Nc2nccc(-c3scnc3-c3cccc(NC(=O)c4c(F)cccc4F)c3)n2)cc1 | < 100
Nc1nc(-c2cccc(NC(=O)c3cc(F)ccc3F)c2)c(-c2ccnc(Nc3ccc4c(c3)CNCC4)n2)s1 | < 100
Cc1nc(-c2cccc(NC(=O)c3c(F)cccc3F)c2)c(-c2ccnc(Nc3ccc(OC4CCNCC4)c(F)c3)n2)s1 | < 100
CNc1nc(-c2cccc(NC(=O)c3c(F)cccc3F)c2)c(-c2ccnc(Nc3ccc(OCCN(C)C)c(Cl)c3)n2)s1 | < 100
CN(C)CCOc1ccc(Nc2nccc(-c3sc(N)nc3-c3cccc(NC(=O)c4cc(F)ccc4F)c3)n2)cc1Cl | < 100
CN(C)CCOc1cccc(Nc2nccc(-c3sc(N4CCCCC4)nc3-c3cccc(NC(=O)c4c(F)cccc4F)c3)n2)c1 | < 100
Cc1nc(-c2cccc(NC(=O)c3c(F)cccc3F)c2)c(-c2ccnc(Nc3ccc(OCCN4CCCC4)c(Cl)c3)n2)s1 | < 100
COc1ccc(Nc2nccc(-c3sc(N)nc3-c3cccc(NC(=O)c4c(F)cccc4F)c3)n2)cc1N1CCN(C)CC1 | < 100
Nc1nc(-c2cccc(NC(=O)c3c(F)cccc3F)c2)c(-c2ccnc(Nc3ccc4c(c3)CNCC4)n2)s1 | < 100
O=C(Nc1cccc(-c2nc(N3CCCCC3)sc2-c2ccnc(Nc3cccc(CN4CCCC4)c3)n2)c1)c1c(F)cccc1F | < 100
Nc1nc(-c2cccc(NC(=O)c3c(F)cccc3F)c2)c(-c2ccnc(Nc3ccc4c(c3)NC(=O)CO4)n2)s1 | < 100
Nc1nc(-c2cccc(OCc3ccccc3)c2)c(-c2ccnc(Nc3cccc(-c4cnco4)c3)n2)s1 | < 100
CN(C)CCCNc1ccc(Nc2nccc(-c3sc(N)nc3-c3cccc(NC(=O)C4CCCCC4)c3)n2)cc1F | < 100
CN(C)CCOc1cccc(Nc2nccc(-c3scnc3-c3cccc(NC(=O)c4c(F)cccc4F)c3)n2)c1 | < 100
COc1ccc(Nc2nccc(-c3scnc3-c3cccc(NC(=O)c4c(F)cccc4F)c3)n2)cc1N1CCN(C)CC1 | < 100
CN1CCc2ccc(Nc3nccc(-c4sc(NCCCN5CCOCC5)nc4-c4cccc(NC(=O)c5c(F)cccc5F)c4)n3)cc2C1 | < 100
Cc1nc(-c2cccc(NC(=O)c3c(F)cccc3F)c2)c(-c2ccnc(Nc3cccc(OCCN(C)C)c3)n2)s1 | < 100

SMILES | IC50 [nM]
CN(C)CCCNc1ccc(Nc2nccc(-c3sc(N)nc3-c3cccc(NC(=O)c4cccn4C)c3)n2)cc1F | < 100
CN(C)CCOc1ccc(Nc2nccc(-c3scnc3-c3cccc(NC(=O)c4c(F)cccc4F)c3)n2)cc1Cl | < 100
Cc1nc(-c2cccc(NC(=O)c3c(F)cccc3F)c2)c(-c2ccnc(Nc3ccc(OC4CCN(C(C)C)CC4)c(F)c3)n2)s1 | < 100
Cc1cc(Nc2nccc(-c3sc(N(C)C)nc3-c3cccc(NC(=O)c4c(F)cccc4F)c3)n2)ccc1CC1CCNCC1 | < 100
CCN(CC)CCOc1cccc(Nc2nccc(-c3sc(N)nc3-c3cccc(NC(=O)c4c(F)cccc4F)c3)n2)c1 | < 100
CN(C)C1Cc2ccc(Nc3nccc(-c4scnc4-c4cccc(NC(=O)Cc5cccs5)c4)n3)cc2C1 (stereo unspecified) | < 100
Cc1nc(-c2cccc(NC(=O)c3cc(F)ccc3F)c2)c(-c2ccnc(Nc3ccc(OCCN(C)C)c(F)c3)n2)s1 | < 100
CN1CCc2ccc(Nc3nccc(-c4sc(N(C)C)nc4-c4cccc(NC(=O)c5c(F)cccc5F)c4)n3)cc2C1 | < 100
Nc1nc(-c2cccc(NC(=O)c3c(F)cccc3F)c2)c(-c2ccnc(Nc3cccc(F)c3)n2)s1 | < 100
CN(C)CCOc1cccc(Nc2nccc(-c3scnc3-c3cccc(NC(=O)c4cc(F)ccc4F)c3)n2)c1 | < 100
Cc1nc(-c2cccc(NC(=O)c3c(F)cccc3F)c2)c(-c2ccnc(Nc3ccc(OC4CCN(C)CC4)c(F)c3)n2)s1 | < 100
CN(C)CCOc1cccc(Nc2nccc(-c3sc(N)nc3-c3cccc(NC(=O)c4c(F)cccc4F)c3)n2)c1 | < 100
O=C(Nc1cccc(-c2nc(NCCN3CCOCC3)sc2-c2ccnc(Nc3ccc4c(c3)CNCC4)n2)c1)c1c(F)cccc1F | < 100
O=C(Nc1cccc(-c2nc(NCCCN3CCOCC3)sc2-c2ccnc(Nc3cccc(F)c3)n2)c1)c1c(F)cccc1F | < 100
COc1ccc(Nc2nccc(-c3sc(NCCN4CCOCC4)nc3-c3cccc(NC(=O)c4cc(F)ccc4F)c3)n2)cc1F | < 100
CNc1nc(-c2cccc(NC(=O)c3c(F)cccc3F)c2)c(-c2ccnc(Nc3cccc(CN4CCCC4)c3)n2)s1 | < 100

The next lines start with the values.

IC50 [nM] | SMILES
< 100 | CCc1nc(-c2cccc(NC(=O)c3c(F)cccc3F)c2)c(-c2ccnc(Nc3ccc(OCCN(C)C)c(Cl)c3)n2)s1
< 100 | CN1CCc2ccc(Nc3nccc(-c4sc(CS(=O)(=O)C(C)(C)C)nc4-c4cccc(NC(=O)c5c(F)cccc5F)c4)n3)cc2C1
< 100 | Nc1nc(-c2cccc(NC(=O)c3c(F)cccc3F)c2)c(-c2ccnc(Nc3cccc(CCS(N)(=O)=O)c3)n2)s1
< 100 | Nc1nc(-c2cccc(NC(=O)c3c(F)cccc3F)c2)c(-c2ccnc(Nc3cccc(CN4CCCC4)c3)n2)s1
< 100 | CC(=O)N1CCC(Oc2ccc(Nc3nccc(-c4sc(C)nc4-c4cccc(NC(=O)c5c(F)cccc5F)c4)n3)cc2F)CC1
< 100 | CN(C)CCOc1cccc(Nc2nccc(-c3sc(NCCCN4CCOCC4)nc3-c3cccc(NC(=O)c4c(F)cccc4F)c3)n2)c1
< 100 | Cc1nc(-c2cccc(NC(=O)c3cc(F)ccc3F)c2)c(-c2ccnc(Nc3ccc(OCCN(C)C)c(Cl)c3)n2)o1
< 100 | Cc1nc(-c2cccc(NC(=O)c3c(F)cccc3F)c2)c(-c2ccnc(Nc3ccc(OCCN(C)C)c(F)c3)n2)s1
< 100 | CN(C)CCOc1ccc(Nc2nccc(-c3sc(N)nc3-c3cccc(C(=O)Nc4c(F)cccc4F)c3)n2)cc1Cl
< 100 | CN(C)CCOc1ccc(Nc2nccc(-c3sc(N)nc3-c3cccc(NC(=O)C4CCCCC4)c3)n2)cc1Cl
< 100 | Cc1nc(-c2cccc(NC(=O)c3c(F)cccc3F)c2)c(-c2ccnc(Nc3cccc(CN4CCCC4)c3)n2)s1
< 100 | CCNc1nc(-c2cccc(NC(=O)c3c(F)cccc3F)c2)c(-c2ccnc(Nc3ccc(OCCN(C)C)c(Cl)c3)n2)s1
< 100 | CS(=O)(=O)Cc1ccc(Nc2nccc(-c3sc(N)nc3-c3cccc(NC(=O)c4c(F)cccc4F)c3)n2)cc1
< 100 | CN1CCc2ccc(Nc3nccc(-c4sc(N)nc4-c4cccc(NC(=O)c5c(F)cccc5F)c4)n3)cc2C1
< 100 | Cc1nc(-c2cccc(NC(=O)c3c(F)cccc3F)c2)c(-c2ccnc(Nc3ccc(OCCN(C)C)c(Cl)c3)n2)s1
< 100 | O=C(Cc1cccs1)Nc1cccc(-c2ncsc2-c2ccnc(Nc3ccc4c(c3)OCC(=O)N4)n2)c1
< 100 | CN(C)c1nc(-c2cccc(NC(=O)c3c(F)cccc3F)c2)c(-c2ccnc(Nc3ccc(OCCN4CCCC4)c(Cl)c3)n2)s1
< 100 | CCc1nc(-c2cccc(NC(=O)c3c(F)cccc3F)c2)c(-c2ccnc(Nc3ccc(OCCN4CCCC4)c(F)c3)n2)s1
< 100 | CC(C)c1nc(-c2cccc(NC(=O)c3c(F)cccc3F)c2)c(-c2ccnc(Nc3cccc(OCCN(C)C)c3)n2)s1
< 100 | CC(=O)Nc1nc(-c2cccc(NC(=O)c3c(F)cccc3F)c2)c(-c2ccnc(Nc3cccc(CN4CCCC4)c3)n2)s1
< 100 | CCNc1nc(-c2cccc(NC(=O)c3c(F)cccc3F)c2)c(-c2ccnc(Nc3ccc(CCN4CCCC4)c(F)c3)n2)s1
< 100 | CN(C)c1nc(-c2cccc(NC(=O)c3c(F)cccc3F)c2)c(-c2ccnc(Nc3ccc(N4CCOCC4)c(Cl)c3)n2)s1

IC50 [nM] | SMILES
< 100 | O=C(Nc1cccc(-c2nc(N3CCC3)sc2-c2ccnc(Nc3ccc(OCCN4CCCC4)c(Cl)c3)n2)c1)c1c(F)cccc1F
< 100 | NS(=O)(=O)CCc1cccc(Nc2nccc(-c3scnc3-c3cccc(NC(=O)c4cc(F)ccc4F)c3)n2)c1
< 100 | O=C(Nc1cccc(-c2ncsc2-c2ccnc(Nc3ccc4c(c3)CNCC4)n2)c1)c1c(F)cccc1F
< 100 | CCN(CC)CCOc1cccc(Nc2nccc(-c3scnc3-c3cccc(NC(=O)c4c(F)cccc4F)c3)n2)c1
< 100 | COCCOc1ccc(Nc2nccc(-c3sc(N)nc3-c3cccc(NC(=O)c4cc(F)ccc4F)c3)n2)cc1F
< 100 | CCN(CC)CCOc1cccc(Nc2nccc(-c3scnc3-c3cccc(NC(=O)c4cc(F)ccc4F)c3)n2)c1
< 100 | CN(C)CCOc1ccc(Nc2nccc(-c3sc(-c4ccc(O)cc4)nc3-c3cccc(NC(=O)c4cc(F)ccc4F)c3)n2)cc1Cl
< 100 | CN(C)CCOc1ccc(Nc2nccc(-c3sc(N)nc3-c3cccc(OCc4ccccc4)c3)n2)cc1Cl
< 100 | Cc1nc(-c2cccc(NC(=O)c3ccc(F)cc3)c2)c(-c2ccnc(Nc3ccc(OCCN(C)C)c(Cl)c3)n2)s1
< 100 | CN(C)CCCNc1ccc(Nc2nccc(-c3sc(N)nc3-c3cccc(NC(=O)c4cc(F)ccc4F)c3)n2)cc1F
< 100 | Cc1nc(-c2cccc(NC(=O)c3cccnc3F)c2)c(-c2ccnc(Nc3ccc4c(c3)CN(C)CC4)n2)s1
< 100 | COCCNc1nc(-c2cccc(NC(=O)c3cc(F)ccc3F)c2)c(-c2ccnc(Nc3ccc(OC)c(F)c3)n2)s1
< 100 | COc1cccc(C(=O)Nc2cccc(-c3nc(C)sc3-c3ccnc(Nc4ccc5c(c4)CN(C)CC5)n3)c2)c1
< 100 | Cc1nc(-c2cccc(NC(=O)c3c(F)cccc3F)c2)c(-c2ccnc(Nc3cccc(F)c3)n2)s1
< 100 | COc1cc(Nc2nccc(-c3sc(N)nc3-c3cccc(NC(=O)c4c(F)cccc4F)c3)n2)cc(OC)c1OC
< 100 | CN(C)CCOc1ccc(Nc2nccc(-c3sc(N(C)C)nc3-c3cccc(NC(=O)c4c(F)cccc4F)c3)n2)cc1Cl
< 100 | CN(C)CCOc1ccc(Nc2nccc(-c3sc(N4CCN(C)CC4)nc3-c3cccc(NC(=O)c4c(F)cccc4F)c3)n2)cc1Cl
< 100 | CN(C)C1Cc2ccc(Nc3nccc(-c4sc(N)nc4-c4cccc(NC(=O)c5c(F)cccc5F)c4)n3)cc2C1 (stereo unspecified)
< 100 | CN(C)CCOc1ccc(Nc2nccc(-c3sc(N(C)C)nc3-c3cccc(NC(=O)c4c(F)cccc4F)c3)n2)cc1
< 100 | CCc1nc(-c2cccc(NC(=O)c3c(F)cccc3F)c2)c(-c2ccnc(Nc3ccc(N4CCC(N5CCCCC5)CC4)c(F)c3)n2)s1
< 100 | O=C(Nc1cccc(-c2nc(NCCCN3CCOCC3)sc2-c2ccnc(Nc3cccc(CN4CCCC4)c3)n2)c1)c1c(F)cccc1F
